pIC50: −log10 of the molar value. Like-named read-outs stand apart in the source and are kept apart here.
What was measured:
EGFR Exon19Del/T790M = target: T1, EGFR Exon19Del/T790M (Homo sapiens, UniProt P00533, DEL746-750/T790M); assay: Inhibition of EGFR Exon19Del/T790M biochemical enzymatic activity (HTRF); details: 1 mM ATP; for pIC50: EGFR Exon19Del/T790M, 1 h at room temperature, read-out: IC50 @Del19-T790M
T1 construct: purchased Carna Bio
How it was run: (§1)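 Read-out is the HTRF 665/615 nm ratio (excitation 320 nm), taken as proportional to kinase activity after a 1 h room-temperature reaction with 1 mM ATP and 1 μM biotinylated TK substrate. IC50 values derive from four-parameter logistic fitting.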

EGFR wild type = target: T2, EGFR wild type (Homo sapiens, UniProt P00533); assay: Inhibition of EGFR wild type biochemical enzymatic activity (HTRF); details: 1 mM ATP; for pIC50: EGFR wild type, 1 h at room temperature, read-out: IC50 @WT
T2 construct: purchased Carna Bio
How it was run: as §1

EGFR Exon19Del = target: T3, EGFR Exon19Del (Homo sapiens, UniProt P00533, DEL746-750); assay: Inhibition of EGFR Exon19Del biochemical enzymatic activity (HTRF); details: read-out: IC50 @Del19
T3 construct: purchased Carna Bio
How it was run: as §1

EGFR (d746-750 C797S) = target: T4, EGFR (d746-750 C797S) (Homo sapiens, UniProt P00533, C797S/DEL746-750); assay: Inhibition of EGFR (d746-750 C797S) biochemical enzymatic activity (HTRF); details: 1 mM ATP; for pIC50: EGFR (d746-750 C797S), 1 h at room temperature, read-out: IC50 @Del19-C797S
T4 construct: purchased signalchem
How it was run: as §1

EGFR (C797S L858R) = target: T5, EGFR (C797S L858R) (Homo sapiens, UniProt P00533, C797S/L858R); assay: Inhibition of EGFR (C797S L858R) biochemical enzymatic activity (HTRF); details: 1 mM ATP; for pIC50: EGFR (C797S L858R), 1 h at room temperature, read-out: IC50 @L858-C797S
T5 construct: purchased signalchem
How it was run: as §1

[1] = target: T6, EGFR[T790M/C797S/d746-750] (Homo sapiens, UniProt P00533, C797S/DEL746-750/T790M); assay: Inhibition of EGFR[T790M/C797S/d746-750] biochemical enzymatic activity (HTRF); details: for pIC50: EGFR[T790M/C797S/d746-750], 1 mM ATP, 1 h at room temperature, read-out: IC50 @T790M - C797S - Del19
T6 construct: purchased Carna Bio
How it was run: as §1

EGFR[T790M/C797S/L858R] = target: T7, EGFR[T790M/C797S/L858R] (Homo sapiens, UniProt P00533, C797S/L858R/T790M); assay: Inhibition of EGFR[T790M/C797S/L858R] biochemical enzymatic activity (HTRF); details: 1 mM ATP; for pIC50: EGFR[T790M/C797S/L858R], 1 h at room temperature, read-out: IC50 @T790M- C797S - L858R
T7 construct: purchased Carna Bio
How it was run: as §1

PC-9 = assay: Cell proliferation assay, PC-9 cells (CellTiter-Glo, 72 hours); assay type: cell-based; details: PC9 cells, read-out: GI50 PC9
How it was run: (§2)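 Ba/F3 cells (5000/well) and PC-9 cells (500/well, RPMI1640 with 10% FBS) were plated overnight and then dosed with a compound concentration series. Viable cells were read at day 0 (G0) and after treatment (G3). GI50 came from curve fits of G0-corrected proliferation relative to DMSO.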

[2] = system: Ba/F3 cells expressing EGFR mutations; assay: Cell proliferation assay, Ba/F3 cells expressing EGFR mutations (CellTiter-Glo, 72 hours); assay type: cell-based
How it was run: as §2

A-431 = assay: Cell proliferation assay, A-431 cells (GI50, Table 6); assay type: cell-based
EGFR L858R = target: T8, EGFR L858R (Homo sapiens, UniProt P00533, L858R); assay: Inhibition of EGFR L858R biochemical enzymatic activity (HTRF); details: 1 mM ATP; for pIC50: 1 h at room temperature, read-out: IC50 @L858R
T8 construct: purchased Carna Bio
How it was run: as §1

EGFR L858R/T790M = target: T9, EGFR L858R/T790M (Homo sapiens, UniProt P00533, L858R/T790M); assay: Inhibition of EGFR L858R/T790M biochemical enzymatic activity (HTRF); details: 1 mM ATP; for pIC50: EGFR L858R/T790M, 1 h at room temperature, read-out: IC50 @L858R-T790M
T9 construct: purchased Carna Bio
How it was run: as §1

[3] = EGFR Exon19Del, 1 mM ATP, 1 h at room temperature
[4] = Mus musculus, BaF3, 72 h, BaF3 cells, EGFR DEL19 - C797S, read-out: GI50 DEL19 - C797S/BaF3
[5] = Mus musculus, BaF3, 72 h, BaF3 cells, EGFR L858R - C797S, read-out: GI50 L858R - C797S/BaF3
[6] = Mus musculus, BaF3, 72 h, BaF3 cells, EGFR L858R - T790-C797S, read-out: GI50 L858R - T790-C797S/BaF3
[7] = Mus musculus, BaF3, 72 h, BaF3 cells, EGFR L858R - T790M, read-out: GI50 L858R - T790M/BaF3
[8] = Mus musculus, BaF3, 72 h, BaF3 cells, EGFR L858R, read-out: GI50 L858R/BaF3
[9] = Mus musculus, BaF3, 72 h, EGFR DEL19 - T790M, read-out: GI50 DEL19 - T790M
[10] = Homo sapiens, A-431, A-431 cells
[11] = Mus musculus, BaF3, 72 h, BaF3 cells, EGFR DEL19 - T790-C797S, read-out: GI50 DEL19 - T790-C797S/BaF3

T1 sequence (P00533 with tags, fused parts or gaps DEL746-750/T790M limits assumed): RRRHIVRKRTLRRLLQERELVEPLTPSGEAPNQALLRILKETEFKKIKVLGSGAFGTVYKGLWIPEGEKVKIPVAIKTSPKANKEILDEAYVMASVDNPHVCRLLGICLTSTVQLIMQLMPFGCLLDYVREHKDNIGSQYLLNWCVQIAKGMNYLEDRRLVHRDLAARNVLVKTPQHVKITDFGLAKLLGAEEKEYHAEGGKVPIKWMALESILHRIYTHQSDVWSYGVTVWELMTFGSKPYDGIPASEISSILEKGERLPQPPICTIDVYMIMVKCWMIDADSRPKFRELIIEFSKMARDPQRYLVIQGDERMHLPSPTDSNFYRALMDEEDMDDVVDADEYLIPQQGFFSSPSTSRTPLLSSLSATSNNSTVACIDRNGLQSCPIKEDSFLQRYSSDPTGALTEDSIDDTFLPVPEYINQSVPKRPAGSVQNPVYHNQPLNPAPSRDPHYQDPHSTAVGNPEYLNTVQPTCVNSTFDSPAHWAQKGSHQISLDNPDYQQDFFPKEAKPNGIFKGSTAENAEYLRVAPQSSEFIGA
T2 sequence (P00533 25-1210): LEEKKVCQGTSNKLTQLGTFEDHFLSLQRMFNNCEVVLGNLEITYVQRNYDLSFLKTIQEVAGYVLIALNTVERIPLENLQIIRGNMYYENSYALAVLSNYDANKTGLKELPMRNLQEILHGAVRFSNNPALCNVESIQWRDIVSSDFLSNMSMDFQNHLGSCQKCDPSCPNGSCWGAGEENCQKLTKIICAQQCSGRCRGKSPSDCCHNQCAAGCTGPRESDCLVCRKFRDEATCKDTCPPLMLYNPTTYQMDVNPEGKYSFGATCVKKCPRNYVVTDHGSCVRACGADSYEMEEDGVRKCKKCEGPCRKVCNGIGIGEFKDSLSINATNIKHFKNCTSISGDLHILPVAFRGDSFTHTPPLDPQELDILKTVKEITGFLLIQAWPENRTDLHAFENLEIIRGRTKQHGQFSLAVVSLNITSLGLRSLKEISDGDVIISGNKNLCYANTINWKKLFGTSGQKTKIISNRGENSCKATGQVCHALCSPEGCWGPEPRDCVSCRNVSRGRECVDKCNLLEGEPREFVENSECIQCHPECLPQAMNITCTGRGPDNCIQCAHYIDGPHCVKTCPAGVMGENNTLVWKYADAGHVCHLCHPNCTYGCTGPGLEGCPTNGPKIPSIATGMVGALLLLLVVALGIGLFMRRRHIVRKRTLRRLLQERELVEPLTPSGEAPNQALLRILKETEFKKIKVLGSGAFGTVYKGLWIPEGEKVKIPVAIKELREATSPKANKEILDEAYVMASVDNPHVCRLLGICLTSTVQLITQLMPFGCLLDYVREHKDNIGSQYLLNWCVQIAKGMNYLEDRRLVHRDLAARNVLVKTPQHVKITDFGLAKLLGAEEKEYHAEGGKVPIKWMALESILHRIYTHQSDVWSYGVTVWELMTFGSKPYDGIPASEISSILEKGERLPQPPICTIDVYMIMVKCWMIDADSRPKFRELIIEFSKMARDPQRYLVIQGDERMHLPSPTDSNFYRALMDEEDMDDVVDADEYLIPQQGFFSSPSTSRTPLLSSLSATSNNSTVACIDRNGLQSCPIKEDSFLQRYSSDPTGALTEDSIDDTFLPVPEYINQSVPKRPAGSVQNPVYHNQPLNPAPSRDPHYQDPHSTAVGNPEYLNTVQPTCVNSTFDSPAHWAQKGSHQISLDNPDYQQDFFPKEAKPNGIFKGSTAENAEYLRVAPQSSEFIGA
T7 sequence (P00533 25-1210 T790M/C797S/L858R): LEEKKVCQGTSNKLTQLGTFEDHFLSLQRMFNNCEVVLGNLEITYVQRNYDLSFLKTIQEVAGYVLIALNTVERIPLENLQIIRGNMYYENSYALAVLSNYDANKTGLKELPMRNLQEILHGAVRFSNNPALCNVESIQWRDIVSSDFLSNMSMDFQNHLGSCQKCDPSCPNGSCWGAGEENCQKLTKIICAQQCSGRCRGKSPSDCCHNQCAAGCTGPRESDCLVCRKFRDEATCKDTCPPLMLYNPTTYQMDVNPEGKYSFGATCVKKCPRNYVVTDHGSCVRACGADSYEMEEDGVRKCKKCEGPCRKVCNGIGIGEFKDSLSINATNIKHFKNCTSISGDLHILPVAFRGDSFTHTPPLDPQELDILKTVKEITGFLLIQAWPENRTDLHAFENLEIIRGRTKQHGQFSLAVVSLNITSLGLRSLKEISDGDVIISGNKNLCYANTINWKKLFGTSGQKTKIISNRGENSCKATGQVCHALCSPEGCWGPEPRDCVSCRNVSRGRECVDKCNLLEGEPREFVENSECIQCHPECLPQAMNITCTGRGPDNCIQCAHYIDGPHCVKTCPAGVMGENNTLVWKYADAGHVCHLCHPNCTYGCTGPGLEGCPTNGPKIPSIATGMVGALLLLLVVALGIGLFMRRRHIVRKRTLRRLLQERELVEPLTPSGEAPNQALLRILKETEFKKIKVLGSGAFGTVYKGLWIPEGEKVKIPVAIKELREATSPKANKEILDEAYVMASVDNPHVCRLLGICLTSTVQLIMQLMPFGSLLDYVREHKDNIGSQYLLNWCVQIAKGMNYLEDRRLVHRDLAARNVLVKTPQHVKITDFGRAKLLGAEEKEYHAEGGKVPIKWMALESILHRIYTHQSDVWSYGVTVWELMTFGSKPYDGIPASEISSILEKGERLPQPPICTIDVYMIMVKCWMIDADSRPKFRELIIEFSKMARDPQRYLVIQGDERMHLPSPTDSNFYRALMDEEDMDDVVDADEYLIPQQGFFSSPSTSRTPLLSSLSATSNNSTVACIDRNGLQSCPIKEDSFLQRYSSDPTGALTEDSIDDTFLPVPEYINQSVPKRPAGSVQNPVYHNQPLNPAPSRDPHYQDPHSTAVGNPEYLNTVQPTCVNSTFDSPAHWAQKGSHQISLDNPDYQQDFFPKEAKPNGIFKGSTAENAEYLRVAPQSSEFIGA
T4 sequence (P00533 with tags, fused parts or gaps DEL746-750/C797S limits assumed): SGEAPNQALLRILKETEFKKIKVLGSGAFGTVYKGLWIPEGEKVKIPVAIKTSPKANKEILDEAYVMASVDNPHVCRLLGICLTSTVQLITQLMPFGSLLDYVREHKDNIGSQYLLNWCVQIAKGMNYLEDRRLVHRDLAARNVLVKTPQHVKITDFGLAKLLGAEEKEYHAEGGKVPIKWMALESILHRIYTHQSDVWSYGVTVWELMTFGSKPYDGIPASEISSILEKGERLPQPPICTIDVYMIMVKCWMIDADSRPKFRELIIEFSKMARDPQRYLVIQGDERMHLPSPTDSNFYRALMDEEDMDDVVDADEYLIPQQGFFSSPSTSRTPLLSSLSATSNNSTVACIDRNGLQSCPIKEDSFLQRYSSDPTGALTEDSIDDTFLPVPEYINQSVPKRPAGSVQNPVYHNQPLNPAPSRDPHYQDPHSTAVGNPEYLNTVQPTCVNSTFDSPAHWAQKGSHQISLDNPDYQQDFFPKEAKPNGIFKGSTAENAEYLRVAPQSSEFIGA
T9 sequence (P00533 25-1210 T790M/L858R): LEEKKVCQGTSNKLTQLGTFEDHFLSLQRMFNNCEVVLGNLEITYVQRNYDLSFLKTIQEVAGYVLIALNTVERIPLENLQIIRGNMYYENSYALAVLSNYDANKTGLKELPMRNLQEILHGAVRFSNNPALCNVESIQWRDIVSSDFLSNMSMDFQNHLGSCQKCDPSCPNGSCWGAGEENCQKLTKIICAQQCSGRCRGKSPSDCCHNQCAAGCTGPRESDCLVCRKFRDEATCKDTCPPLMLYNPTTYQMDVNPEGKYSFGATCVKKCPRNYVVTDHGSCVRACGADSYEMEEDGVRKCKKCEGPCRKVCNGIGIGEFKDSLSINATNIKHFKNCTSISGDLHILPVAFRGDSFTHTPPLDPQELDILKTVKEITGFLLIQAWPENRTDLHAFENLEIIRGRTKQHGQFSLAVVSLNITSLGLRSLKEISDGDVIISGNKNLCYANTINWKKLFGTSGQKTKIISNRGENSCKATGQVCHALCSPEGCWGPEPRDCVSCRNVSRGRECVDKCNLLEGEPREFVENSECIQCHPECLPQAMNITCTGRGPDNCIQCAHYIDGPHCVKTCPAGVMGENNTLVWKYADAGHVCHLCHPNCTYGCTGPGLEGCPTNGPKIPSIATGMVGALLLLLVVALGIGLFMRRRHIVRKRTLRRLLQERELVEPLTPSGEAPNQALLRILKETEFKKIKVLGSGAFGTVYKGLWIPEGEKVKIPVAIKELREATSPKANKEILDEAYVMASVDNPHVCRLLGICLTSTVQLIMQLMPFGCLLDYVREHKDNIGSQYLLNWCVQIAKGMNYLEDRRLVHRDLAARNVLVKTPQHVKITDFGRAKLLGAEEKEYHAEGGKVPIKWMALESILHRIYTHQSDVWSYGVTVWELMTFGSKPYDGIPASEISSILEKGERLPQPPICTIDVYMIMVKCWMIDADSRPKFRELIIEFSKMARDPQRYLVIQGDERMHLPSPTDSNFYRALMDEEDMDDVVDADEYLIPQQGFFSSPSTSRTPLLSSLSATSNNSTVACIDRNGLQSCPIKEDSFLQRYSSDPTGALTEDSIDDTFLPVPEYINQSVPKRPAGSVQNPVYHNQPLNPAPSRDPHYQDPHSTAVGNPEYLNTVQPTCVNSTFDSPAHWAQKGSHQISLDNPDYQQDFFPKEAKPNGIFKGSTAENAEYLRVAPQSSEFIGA

Cc1cc2cc(n1)-c1cnn(C)c1OCCCCCn1c(nc3ccc4c(c31)CCNC4)NC2=O [Example B16, 5,30-dimethyl-7-oxa-4,5,13,18,24,26,31-heptaazahexacyclo[26.3.1.0^{2,6}.0^{13,25}.0^{14,23}.0^{15,20}]dotriaconta-1(31),2(6),3,14,20,22,24,28(32),29-nonaen-27-one]
pIC50 (EGFR Exon19Del/T790M): 8.15
pIC50 (EGFR wild type): < 5.30
pIC50 (EGFR Exon19Del; [3]): 6.30
pIC50 (EGFR (d746-750 C797S)): 6.71
pIC50 (EGFR (C797S L858R)): < 5.30
pIC50 [1]: 8.49
pIC50 (EGFR[T790M/C797S/L858R]): 7.26
GI50 (PC-9; Homo sapiens, PC-9, 72 h): 438 nM
GI50 [2, 4]: 57 nM
GI50 [2, 5]: 297 nM
GI50 [2, 6]: 8.8 nM
GI50 [2, 7]: 308 nM
GI50 [2, 8]: 286 nM
GI50 [2, 9]: 29 nM
GI50 (A-431; [10]): 3230 nM
pIC50 (EGFR L858R): < 5.30
pIC50 (EGFR L858R/T790M): 6.35

CN1CCN(c2ccc3nc4n(c3c2)C(C)(C)CCCCOc2c(cnn2C)-c2cc(cn(C)c2=O)C(=O)N4)CC1 [Example A112, 5,12,12,26-Tetramethyl-16-(4-methylpiperazin-1-yl)-7-oxa-4,5,13,20,22,26-hexaazapentacyclo[22.3.1.0^{2,6}.0^{13,21}.0^{14,19}]octacosa-1(28),2(6),3,14,16,18,20,24-octaene-23,27-dione]
IC50 (EGFR Exon19Del/T790M; EGFR Del19-T790M, 1 h, room temperature, read-out: IC50 (nM) @Del19-T790M): 15 nM
IC50 (EGFR wild type; EGFR WT, 1 h, room temperature, read-out: IC50 (nM) @WT): > 5000 nM
pIC50 (EGFR Exon19Del; EGFR Del19, 1 mM ATP, 1 h, room temperature): 8.07
IC50 (EGFR (d746-750 C797S); EGFR Del19-C797S, 1 h, room temperature, read-out: IC50 (nM) @Del19-C797S): 6.6 nM
IC50 (EGFR (C797S L858R); EGFR L858-C797S, 1 h, room temperature, read-out: IC50 (nM) @L858-C797S): 60 nM
IC50 ([1]; EGFR T790M-C797S-Del19, 1 mM ATP, 1 h, room temperature, read-out: IC50 (nM) @T790M - C797S - Del19): 12 nM
IC50 (EGFR[T790M/C797S/L858R]; EGFR T790M-C797S-L858R, 1 h, room temperature, read-out: IC50 (nM) @T790M- C797S - L858R): 52 nM
GI50 (PC-9; Homo sapiens, PC-9, 72 h): 45 nM
GI50 [2, 4]: 4.5 nM
GI50 [2, 11]: 70 nM
GI50 [2, 5]: 47 nM
GI50 [2, 6]: 64 nM
GI50 [2, 7]: 37 nM
GI50 [2, 8]: 89 nM
GI50 [2, 9]: 105 nM
GI50 (A-431; [10]): 3590 nM
IC50 (EGFR L858R; 1 h, room temperature, read-out: IC50 (nM) @L858R): 198 nM
IC50 (EGFR L858R/T790M; EGFR L858R-T790M, 1 h, room temperature, read-out: IC50 (nM) @L858R-T790M): 133 nM

Cc1cc2cc(n1)-c1cc(=O)n(C)cc1OCCC[C@@H](C)Cn1c(nc3ccccc31)NC2=O [Example B11, (12R)-5,12,27-Trimethyl-8-oxa-5,14,21,23,28-pentaazapentacyclo[23.3.1.0^{2,7}.0^{14,22}.0^{15,20}]nonacosa-1(29),2,6,15,17,19,21,25,27-nonaene-4,24-dione]
pIC50 (EGFR Exon19Del/T790M): 6.29
pIC50 (EGFR wild type): < 5.30
pIC50 (EGFR Exon19Del; [3]): < 5.30
pIC50 (EGFR (d746-750 C797S)): 5.36
pIC50 (EGFR (C797S L858R)): < 5.30
pIC50 [1]: 6.40
pIC50 (EGFR[T790M/C797S/L858R]): < 5.30
GI50 (PC-9; Homo sapiens, PC-9, 72 h): 1490 nM
GI50 [2, 4]: 626 nM
GI50 [2, 11]: 269 nM
GI50 [2, 5]: 2440 nM
GI50 [2, 6]: 764 nM
GI50 [2, 7]: 2520 nM
GI50 [2, 8]: 3570 nM
GI50 [2, 9]: 441 nM
GI50 (A-431; [10]): 5380 nM
pIC50 (EGFR L858R): < 5.30
pIC50 (EGFR L858R/T790M): < 5.30

Cc1cc2cc(n1)-c1cnn(C)c1OCCN1CC3CCC(C3)(C1)n1c(nc3ccc(N4CCC(N5CCOCC5)C4)cc31)NC2=O (single isomer, unassigned) [Example B44B2]
pIC50 (EGFR Exon19Del/T790M): 8.08
pIC50 (EGFR wild type): 5.31
pIC50 (EGFR Exon19Del; [3]): 7.68
pIC50 (EGFR (d746-750 C797S)): 8.07
pIC50 (EGFR (C797S L858R)): 7.18
pIC50 [1]: 8.15
pIC50 (EGFR[T790M/C797S/L858R]): 8.26
GI50 (PC-9): 22 nM
GI50 ([2]; BaF3 cells, EGFR DEL19 - C797S, read-out: GI50 DEL19 - C797S/BaF3): 2 nM
GI50 ([2]; BaF3 cells, EGFR DEL19 - T790-C797S, read-out: GI50 DEL19 - T790-C797S/BaF3): 2 nM
GI50 ([2]; BaF3 cells, EGFR L858R - C797S, read-out: GI50 L858R - C797S/BaF3): 11 nM
GI50 ([2]; BaF3 cells, EGFR L858R - T790-C797S, read-out: GI50 L858R - T790-C797S/BaF3): 2 nM
GI50 ([2]; BaF3 cells, EGFR L858R - T790M, read-out: GI50 L858R - T790M/BaF3): 2 nM
GI50 ([2]; BaF3 cells, EGFR L858R, read-out: GI50 L858R/BaF3): 19 nM
GI50 ([2]; EGFR DEL19 - T790M, read-out: GI50 DEL19 - T790M): 8 nM
GI50 (A-431; A-431 cells): 3060 nM
pIC50 (EGFR L858R): 6.57
pIC50 (EGFR L858R/T790M): 7.85

— patent US20260365670A1, “EGFR INHIBITORS AND USES THEREOF” (DIZAL (JIANGSU) PHARMACEUTICAL CO., LTD., priority 2022, published 2026)
